Source: PMC8185074, “Anchor extension: a structure-guided approach to design cyclic peptides targeting enzyme active sites” (Nature Communications, 2021)
Read-outs that look alike come from different tables or passages of the source. Peptide text beside a SMILES is read from it.

Molecular target: T1, HDAC2 (Homo sapiens, UniProt Q92769)
T1 construct: purchased Reaction Biology Corporation (assay run by the CRO)
Assay: Initial HDAC2 IC50 estimate (BPS Biosciences HDAC fluorogenic assay kit)
Type: biochemical
Description: Initial IC50 values were estimated using HDAC fluorogenic assay kits from BPS Biosciences (HDAC2, HDAC4, and HDAC6) following the protocol described in the kit. All the measures were performed in duplicates or triplicates. These measurements were done either on full range of concentrations (1:10 dilution from 1 µM to 100 pM) or on two concentrations only (20 nM and 200 nM) as an estimate of the range. […] Source Data are provided as a Source Data file.

[1] = Supplementary Dataset 2, read-out: HDAC2 activity (initial activity)
[2] = HDAC2 activity (initial activity), Supplementary Dataset 2
[3] = HDAC2 activity (initial values for HDAC2 IC50), Supp. Table 4, rough estimates, for promising hits full measurements

T1 sequence (Q92769 whole entry): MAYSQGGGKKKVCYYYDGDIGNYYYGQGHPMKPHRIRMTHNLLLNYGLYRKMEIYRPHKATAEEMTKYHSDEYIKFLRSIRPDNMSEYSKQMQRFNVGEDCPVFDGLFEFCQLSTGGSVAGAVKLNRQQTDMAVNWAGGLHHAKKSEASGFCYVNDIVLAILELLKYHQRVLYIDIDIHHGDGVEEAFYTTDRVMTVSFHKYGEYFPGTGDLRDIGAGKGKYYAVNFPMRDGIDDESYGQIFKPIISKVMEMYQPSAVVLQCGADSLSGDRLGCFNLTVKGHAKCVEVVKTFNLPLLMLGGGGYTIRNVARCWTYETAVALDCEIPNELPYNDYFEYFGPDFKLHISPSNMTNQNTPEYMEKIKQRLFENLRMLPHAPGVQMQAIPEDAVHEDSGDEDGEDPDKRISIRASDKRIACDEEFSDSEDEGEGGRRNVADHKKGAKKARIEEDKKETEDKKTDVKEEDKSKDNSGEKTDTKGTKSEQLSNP

SMILES	IC50 [1]	IC50 [2]	IC50 [3]
CCCC[C@@H]1NC(=O)[C@H](CCCCCS)NC(=O)[C@H](CCc2ccccc2)NC(=O)[C@H](C)NC(=O)[C@@H]2CCCN2C(=O)[C@@H](CC(=O)O)NC(=O)[C@@H](CO)NC(=O)[C@H](Cc2c[nH]c3ccccc23)NC(=O)[C@@H](CO)NC1=O [des3.7.0, SHA-Nlu-dSer-Trp-dSer-dAsp-Pro-Ala-C27] (HELM PEPTIDE1{[O=C([C@H](CCCCCS)N[*:1])[*:2]].[Nle].[dS].W.[dS].[dD].P.A.[O=C([C@H](CCc1ccccc1)N[*:1])[*:2]]}$PEPTIDE1,PEPTIDE1,1:R1-9:R2$$$V2.0)	> 1000 nM	–	–
NCCCC[C@@H]1NC(=O)[C@@H]2CCCN2C(=O)[C@H](CC(N)=O)NC(=O)[C@H](CCCCCS)NC(=O)CNC(=O)[C@H](Cc2c[nH]c3ccccc23)NC(=O)[C@@H](CCCCN)NC(=O)[C@H](CN)NC1=O [des1.1.3, SHA-Asn-Pro-Lys-Dap-dLys-Trp-Gly] (HELM PEPTIDE1{[NC[C@H](N[*:1])C(=O)[*:2]].[dK].W.G.[O=C([C@H](CCCCCS)N[*:1])[*:2]].N.P.K}$PEPTIDE1,PEPTIDE1,1:R1-8:R2$$$V2.0)	–	100 nM	10 to 100 nM
CCCC[C@H]1NC(=O)[C@@H](CCCCN)NC(=O)[C@H](CCCCCS)NC(=O)[C@@H](C)NC(=O)[C@H](CCCNC(=N)N)NC(=O)[C@@H]([C@H](C)O)NC(=O)[C@@H](CC(N)=O)NC(=O)[C@H](CCC(=O)O)NC1=O [des1.2.0, SHA-dLys-dNle-Glu-dAsn-dThr-Arg-dAla] (HELM PEPTIDE1{E.[dN].[dT].R.[dA].[O=C([C@H](CCCCCS)N[*:1])[*:2]].[dK].[CCCC[C@@H](N[*:1])C(=O)[*:2]]}$PEPTIDE1,PEPTIDE1,1:R1-8:R2$$$V2.0)	100000 nM	–	–
N=C(N)NCCC[C@@H]1NC(=O)[C@@H](CCCNC(=N)N)NC(=O)[C@H]2CCCN2C(=O)[C@@H](CC(N)=O)NC(=O)[C@H](Cc2ccc(O)cc2)NC(=O)[C@H](CCCCCS)NC(=O)[C@H](CCc2ccccc2)NC(=O)[C@@H](CCCCN)NC(=O)[C@H](CC(=O)O)NC1=O [des3.4.0, SHA-Tyr-dAsn-dPro-dArg-Arg-Asp-dLys-C27] (HELM PEPTIDE1{D.[dK].[O=C([C@H](CCc1ccccc1)N[*:1])[*:2]].[O=C([C@H](CCCCCS)N[*:1])[*:2]].Y.[dN].[dP].[dR].R}$PEPTIDE1,PEPTIDE1,1:R1-9:R2$$$V2.0)	–	10 to 100 nM	–
CC(C)C[C@H]1NC(=O)[C@H](Cc2c[nH]c3ccccc23)NC(=O)[C@H](CCCCCS)NC(=O)[C@@H](Cc2ccc(O)cc2)NC(=O)[C@@H]([C@H](C)O)NC(=O)[C@H](Cc2c[nH]cn2)NC(=O)CNC(=O)[C@H]2CCCN2C(=O)[C@@H](CO)NC1=O [des2.2.2, SHA-Trp-dLeu-dSer-dPro-Gly-His-dThr-dTyr] (HELM PEPTIDE1{G.H.[dT].[dY].[O=C([C@H](CCCCCS)N[*:1])[*:2]].W.[dL].[dS].[dP]}$PEPTIDE1,PEPTIDE1,1:R1-9:R2$$$V2.0)	–	500 nM	–
NCCCC[C@@H]1NC(=O)[C@@H]2CCCN2C(=O)[C@H](CC(N)=O)NC(=O)[C@H](CCCCCS)NC(=O)CNC(=O)[C@H](Cc2c[nH]c3ccccc23)NC(=O)[C@@H](CCCCN)NC(=O)[C@H](CO)NC1=O [des1.1.4, SHA-Asn-Pro-Lys-Ser-dLys-Trp-Gly] (HELM PEPTIDE1{G.[O=C([C@H](CCCCCS)N[*:1])[*:2]].N.P.K.S.[dK].W}$PEPTIDE1,PEPTIDE1,1:R1-8:R2$$$V2.0)	–	100 nM	10 to 100 nM
